Measurements reported in DBAASP.
Values after ≈ are worked out from the molar mass of the structure shown. Blank lines part the entries; values can stand above or below the compound they belong to.

Experiments:
Assay in all cases: ≥ marks a high value that may be exact or a test limit, other limits are often not marked, values filed in µg/mL are converted to µM
[1] = system: Pseudomonas aeruginosa Ps4
Candida albicans C627 = system: Candida albicans C627
[2] = system: Enterococcus faecium mic80
[3] = system: Escherichia coli ESBL 63103
[4] = system: Pseudomonas aeruginosa 213
[5] = system: Pseudomonas aeruginosa H103
[6] = system: Pseudomonas aeruginosa LES400
[7] = system: Staphylococcus aureus ATCC 25923
[8] = system: Staphylococcus aureus C623
[9] = system: Escherichia coli ATCC 25922
Escherichia coli = system: Escherichia coli
[10] = system: Salmonella enterica subsp. enterica serovar Enteritidis
Salmonella sp. = system: Salmonella sp.
[11] = system: Staphylococcus aureus ATCC 29213
[12] = system: Staphylococcus aureus ATCC 43300
Yersinia enterocolitica = system: Yersinia enterocolitica
Candida albicans = system: Candida albicans
[13] = system: Enterococcus faecalis ATCC 29212
Escherichia coli UB1005 = system: Escherichia coli UB1005
[14] = system: Salmonella enterica serovar Typhimurium
[15] = system: Staphylococcus epidermidis
Candida albicans MDM8 = system: Candida albicans MDM8
Escherichia coli SBS 363 = system: Escherichia coli SBS 363
Micrococcus luteus A270 = system: Micrococcus luteus A270

- MIC [1]: ≥ 182 µM
SMILES: CC[C@H](C)[C@H](NC(=O)[C@H](CC(N)=O)NC(=O)[C@H](CCCN=C(N)N)NC(=O)[C@@H]1CCCN1C(=O)[C@H](Cc1c[nH]c2ccccc12)NC(=O)[C@@H](N)Cc1ccccc1)C(=O)N[C@@H](CCCN=C(N)N)C(=O)N[C@@H](CCCCN)C(=O)N[C@H](C(=O)N[C@@H](CCCN=C(N)N)C(N)=O)C(C)C [FWPRNIRKVR]

- MIC (Candida albicans C627): ≥ 89.3 µM
- MIC [2]: ≥ 44.6 µM
- MIC [3]: ≥ 44.6 µM
- MIC [4]: ≥ 89.3 µM
- MIC [5]: ≥ 89.3 µM
- MIC [6]: ≥ 89.3 µM
- MIC [7]: 44.6 µM (≈ 64 µg/mL)
- MIC [8]: 22.3 µM (≈ 32 µg/mL)
SMILES: CC[C@H](C)[C@H](NC(=O)[C@@H](N)CCCN=C(N)N)C(=O)N[C@@H](Cc1c[nH]c2ccccc12)C(=O)N[C@@H](CCCCN)C(=O)N[C@@H](CCCN=C(N)N)C(=O)N[C@@H](Cc1c[nH]c2ccccc12)C(=O)N[C@@H](Cc1c[nH]c2ccccc12)C(=O)N[C@@H](Cc1ccccc1)C(=O)N[C@@H](CCCN=C(N)N)C(=O)O [RIWKRWWFR]

- MIC [1]: ≥ 155 µM
SMILES: CC[C@H](C)[C@H](NC(=O)[C@H](CC(N)=O)NC(=O)[C@H](CCCN=C(N)N)NC(=O)[C@H](CCC(N)=O)NC(=O)[C@H](Cc1c[nH]c2ccccc12)NC(=O)[C@H](Cc1ccccc1)NC(=O)[C@@H](N)CS)C(=O)N[C@@H](CCCN=C(N)N)C(=O)N[C@@H](CCCCN)C(=O)N[C@H](C(=O)N[C@@H](CCCN=C(N)N)C(=O)N[C@@H](CS)C(N)=O)C(C)C [CFWQRNIRKVRC]

- MIC (Candida albicans C627): 21.6 µM (≈ 32 µg/mL)
- MIC [2]: 21.6 µM (≈ 32 µg/mL)
- MIC [3]: 10.8 µM (≈ 16 µg/mL)
- MIC [4]: ≥ 86.6 µM
- MIC [5]: 21.6 µM (≈ 32 µg/mL)
- MIC [6]: ≥ 43.3 µM
- MIC [7]: 21.6 µM (≈ 32 µg/mL)
- MIC [8]: 10.8 µM (≈ 16 µg/mL)
SMILES: NCCCC[C@H](NC(=O)[C@H](Cc1c[nH]c2ccccc12)NC(=O)[C@@H](N)CCCCN)C(=O)N[C@@H](CCCN=C(N)N)C(=O)N[C@@H](Cc1c[nH]c2ccccc12)C(=O)N[C@@H](Cc1c[nH]c2ccccc12)C(=O)N[C@@H](Cc1c[nH]c2ccccc12)C(=O)N[C@@H](Cc1ccccc1)C(=O)N[C@@H](CCCN=C(N)N)C(=O)O [KWKRWWWFR]

- MIC [9]: > 31.8 µM
- MIC (Escherichia coli): > 31.8 µM
- MIC [10]: 31.8 µM (≈ 50 µg/mL)
- MIC (Salmonella sp.): 31.8 µM (≈ 50 µg/mL)
- MIC [11]: > 31.8 µM
- MIC [12]: > 31.8 µM
- MIC (Yersinia enterocolitica): 31.8 µM (≈ 50 µg/mL)
SMILES: CC[C@H](C)[C@H](NC(=O)[C@H](CCCCN)NC(=O)[C@@H](NC(=O)[C@H](CCCN=C(N)N)NC(=O)[C@H](CCCN=C(N)N)NC(=O)[C@H](CCSC)NC(=O)[C@H](CCCCN)NC(=O)[C@H](Cc1c[nH]c2ccccc12)NC(=O)[C@@H](N)CCCN=C(N)N)[C@@H](C)CC)C(=O)N[C@@H](CCC(N)=O)C(=O)N[C@@H](CCCN=C(N)N)C(N)=O [RWKMRRIKIQR]

- MIC (Candida albicans C627): 2.64 µM (≈ 4 µg/mL)
- MIC [2]: 5.27 µM (≈ 8 µg/mL)
- MIC [3]: 5.27 µM (≈ 8 µg/mL)
- MIC [4]: 21.1 µM (≈ 32 µg/mL)
- MIC [5]: 2.64 µM (≈ 4 µg/mL)
- MIC [6]: 21.1 µM (≈ 32 µg/mL)
- MIC [7]: 2.64 µM (≈ 4 µg/mL)
- MIC [8]: 1.32 µM (≈ 2 µg/mL)
SMILES: NCCCC[C@H](NC(=O)[C@@H](N)CCCCN)C(=O)N[C@@H](CCCN=C(N)N)C(=O)N[C@@H](Cc1c[nH]c2ccccc12)C(=O)N[C@@H](Cc1c[nH]c2ccccc12)C(=O)N[C@@H](Cc1c[nH]c2ccccc12)C(=O)N[C@@H](Cc1c[nH]c2ccccc12)C(=O)N[C@@H](Cc1c[nH]c2ccccc12)C(=O)N[C@@H](CCCN=C(N)N)C(=O)O [KKRWWWWWR]

- MIC (Candida albicans): 16 µM (≈ 18.7 µg/mL)
- MIC [13]: 16 µM (≈ 18.7 µg/mL)
- MIC (Escherichia coli UB1005): 2 µM (≈ 2.34 µg/mL)
- MIC [5]: 16 µM (≈ 18.7 µg/mL)
- MIC [14]: 4 µM (≈ 4.68 µg/mL)
- MIC [7]: 4 µM (≈ 4.68 µg/mL)
- MIC [15]: 2 µM (≈ 2.34 µg/mL)
SMILES: CC[C@H](C)[C@H](N)C(=O)N[C@@H](CCCN=C(N)N)C(=O)N[C@@H](CCSC)C(=O)N[C@@H](CCCN=C(N)N)C(=O)N[C@H](C(=O)N[C@@H](CCCN=C(N)N)C(=O)N[C@H](C(=O)N[C@@H](CC(C)C)C(=O)N[C@@H](CC(C)C)C(=O)O)C(C)C)[C@@H](C)CC [IRMRIRVLL]

- MIC [1]: ≥ 154 µM
SMILES: CC[C@H](C)[C@H](NC(=O)[C@H](CC(N)=O)NC(=O)[C@H](CCCN=C(N)N)NC(=O)[C@H](CCC(N)=O)NC(=O)[C@H](Cc1c[nH]c2ccccc12)NC(=O)[C@H](Cc1ccccc1)NC(=O)[C@@H](N)CCCN=C(N)N)C(=O)N[C@@H](CCCN=C(N)N)C(=O)N[C@@H](CCCCN)C(=O)N[C@@H](Cc1ccc(O)cc1)C(=O)N[C@@H](CCCN=C(N)N)C(N)=O [RFWQRNIRKYR]

- MIC [1]: ≥ 250 µM
SMILES: CC[C@H](C)[C@H](NC(=O)[C@H](CC(N)=O)NC(=O)[C@H](CCCN=C(N)N)NC(=O)[C@H](CCC(N)=O)NC(=O)[C@H](Cc1c[nH]c2ccccc12)NC(=O)[C@@H](N)Cc1ccccc1)C(=O)N[C@@H](CCCN=C(N)N)C(=O)N[C@@H](Cc1ccccc1)C(=O)N[C@@H](CCCN=C(N)N)C(=O)N[C@@H](CCCN=C(N)N)C(N)=O [FWQRNIRFRR]

- MIC (Candida albicans): 4.6 µM (≈ 6.02 µg/mL)
- MIC [13]: 2.3 µM (≈ 3.01 µg/mL)
- MIC (Escherichia coli UB1005): 0.6 µM (≈ 0.785 µg/mL)
- MIC [5]: 4.6 µM (≈ 6.02 µg/mL)
- MIC [14]: 2.3 µM (≈ 3.01 µg/mL)
- MIC [7]: 1.2 µM (≈ 1.57 µg/mL)
- MIC [15]: 0.6 µM (≈ 0.785 µg/mL)
SMILES: CC[C@H](C)[C@H](NC(=O)[C@H](CC(C)C)NC(=O)[C@H](CCSC)NC(=O)[C@H](CCCN=C(N)N)NC(=O)[C@H](Cc1c[nH]c2ccccc12)NC(=O)[C@H](Cc1c[nH]c2ccccc12)NC(=O)[C@H](CCCCN)NC(=O)[C@H](Cc1ccccc1)NC(=O)[C@@H](N)CCCCN)C(=O)O [KFKWWRMLI]

- MIC [1]: ≥ 156 µM
SMILES: CC[C@H](C)[C@H](NC(=O)[C@H](CCCN=C(N)N)NC(=O)[C@@H](NC(=O)[C@H](CC(N)=O)NC(=O)[C@H](CCCN=C(N)N)NC(=O)[C@H](CCC(N)=O)NC(=O)[C@H](Cc1c[nH]c2ccccc12)NC(=O)[C@H](Cc1ccccc1)NC(=O)[C@@H](N)CCCN=C(N)N)[C@@H](C)CC)C(=O)N[C@@H](CCCN=C(N)N)C(=O)N[C@@H](CCCN=C(N)N)C(N)=O [RFWQRNIRIRR]

- MIC [9]: 7.96 µM (≈ 12.5 µg/mL)
- MIC (Escherichia coli): 3.56 µM (≈ 5.59 µg/mL)
- MIC [10]: 31.8 µM (≈ 50 µg/mL)
- MIC (Salmonella sp.): 3.18 µM (≈ 5 µg/mL)
- MIC [11]: > 31.8 µM
- MIC [12]: 31.8 µM (≈ 50 µg/mL)
- MIC (Yersinia enterocolitica): 3.98 µM (≈ 6.25 µg/mL)
SMILES: CC[C@H](C)[C@H](NC(=O)[C@H](CCCCN)NC(=O)[C@@H](NC(=O)[C@H](CCC(N)=O)NC(=O)[C@@H](N)CCCN=C(N)N)[C@@H](C)CC)C(=O)N[C@@H](CCCN=C(N)N)C(=O)N[C@@H](CCCN=C(N)N)C(=O)N[C@@H](CCSC)C(=O)N[C@@H](CCCCN)C(=O)N[C@@H](Cc1c[nH]c2ccccc12)C(=O)N[C@@H](CCCN=C(N)N)C(N)=O [RQIKIRRMKWR]

- MIC [9]: > 38 µM
- MIC (Escherichia coli): 19 µM (≈ 25 µg/mL)
- MIC [10]: ≥ 38 µM
- MIC (Salmonella sp.): ≥ 38 µM
- MIC [11]: > 38 µM
- MIC [12]: > 38 µM
- MIC (Yersinia enterocolitica): ≥ 38 µM
SMILES: CC[C@H](C)[C@H](NC(=O)[C@H](CCC(N)=O)NC(=O)[C@@H](N)CCCN=C(N)N)C(=O)N[C@H](C(=O)N[C@@H](CCCN=C(N)N)C(=O)N[C@@H](CCCN=C(N)N)C(=O)N[C@@H](CCSC)C(=O)N[C@@H](Cc1c[nH]c2ccccc12)C(=O)N[C@@H](CCCN=C(N)N)C(N)=O)[C@@H](C)CC [RQIIRRMWR]

- MIC (Candida albicans MDM8): 1.56 µM (≈ 2.06 µg/mL)
- MIC (Escherichia coli SBS 363): 1.56 µM (≈ 2.06 µg/mL)
- MIC (Micrococcus luteus A270): 0.39 µM (≈ 0.516 µg/mL)
SMILES: CC[C@H](C)[C@H](NC(=O)[C@H](CC(C)C)NC(=O)[C@H](CO)NC(=O)[C@H](CC(C)C)NC(=O)[C@H](CC(C)C)NC(=O)[C@@H](N)CO)C(=O)N[C@@H](CCCN=C(N)N)C(=O)N[C@@H](CCCCN)C(=O)N[C@@H](Cc1ccccc1)C(=O)N[C@@H](Cc1ccccc1)C(=O)N[C@H](C(N)=O)[C@@H](C)O [SLLSLIRKFFT]

- MIC [9]: 4.33 µM (≈ 6.25 µg/mL)
- MIC (Escherichia coli): 4.33 µM (≈ 6.25 µg/mL)
- MIC [10]: 8.65 µM (≈ 12.5 µg/mL)
- MIC (Salmonella sp.): 4.33 µM (≈ 6.25 µg/mL)
- MIC [11]: 34.6 µM (≈ 50 µg/mL)
- MIC [12]: > 34.6 µM
- MIC (Yersinia enterocolitica): 17.3 µM (≈ 25 µg/mL)
SMILES: CC[C@H](C)[C@H](NC(=O)[C@H](CCC(N)=O)NC(=O)[C@@H](N)CCCN=C(N)N)C(=O)N[C@@H](Cc1c[nH]c2ccccc12)C(=O)N[C@@H](Cc1c[nH]c2ccccc12)C(=O)N[C@@H](Cc1c[nH]c2ccccc12)C(=O)N[C@@H](Cc1c[nH]c2ccccc12)C(=O)N[C@@H](CCC(N)=O)C(=O)N[C@@H](CCCN=C(N)N)C(N)=O [RQIWWWWQR]
